According to patent publication US20230002367A1, “BIFUNCTIONAL COMPOUNDS” (Hoffmann-La Roche Inc., priority 2019, published 2023):

Molecular target: T1, SMARCA2 (Homo sapiens, UniProt P51531)
T1 construct: endogenous in cells
Assay: SMARCA2 HiBiT degradation assay (cellular)
Assay type: cell-based
Conditions: for Emax: A549, Emax = amount of residual protein remaining in the cell following compound treatment; for DC50: SMARCA2 HiBiT cells, luminescence readout, 11-point titration from 10 μM, 6 hours or 16 hours, read-out: HiBit A549 SMARCA2 IP

T1 sequence (P51531 whole entry): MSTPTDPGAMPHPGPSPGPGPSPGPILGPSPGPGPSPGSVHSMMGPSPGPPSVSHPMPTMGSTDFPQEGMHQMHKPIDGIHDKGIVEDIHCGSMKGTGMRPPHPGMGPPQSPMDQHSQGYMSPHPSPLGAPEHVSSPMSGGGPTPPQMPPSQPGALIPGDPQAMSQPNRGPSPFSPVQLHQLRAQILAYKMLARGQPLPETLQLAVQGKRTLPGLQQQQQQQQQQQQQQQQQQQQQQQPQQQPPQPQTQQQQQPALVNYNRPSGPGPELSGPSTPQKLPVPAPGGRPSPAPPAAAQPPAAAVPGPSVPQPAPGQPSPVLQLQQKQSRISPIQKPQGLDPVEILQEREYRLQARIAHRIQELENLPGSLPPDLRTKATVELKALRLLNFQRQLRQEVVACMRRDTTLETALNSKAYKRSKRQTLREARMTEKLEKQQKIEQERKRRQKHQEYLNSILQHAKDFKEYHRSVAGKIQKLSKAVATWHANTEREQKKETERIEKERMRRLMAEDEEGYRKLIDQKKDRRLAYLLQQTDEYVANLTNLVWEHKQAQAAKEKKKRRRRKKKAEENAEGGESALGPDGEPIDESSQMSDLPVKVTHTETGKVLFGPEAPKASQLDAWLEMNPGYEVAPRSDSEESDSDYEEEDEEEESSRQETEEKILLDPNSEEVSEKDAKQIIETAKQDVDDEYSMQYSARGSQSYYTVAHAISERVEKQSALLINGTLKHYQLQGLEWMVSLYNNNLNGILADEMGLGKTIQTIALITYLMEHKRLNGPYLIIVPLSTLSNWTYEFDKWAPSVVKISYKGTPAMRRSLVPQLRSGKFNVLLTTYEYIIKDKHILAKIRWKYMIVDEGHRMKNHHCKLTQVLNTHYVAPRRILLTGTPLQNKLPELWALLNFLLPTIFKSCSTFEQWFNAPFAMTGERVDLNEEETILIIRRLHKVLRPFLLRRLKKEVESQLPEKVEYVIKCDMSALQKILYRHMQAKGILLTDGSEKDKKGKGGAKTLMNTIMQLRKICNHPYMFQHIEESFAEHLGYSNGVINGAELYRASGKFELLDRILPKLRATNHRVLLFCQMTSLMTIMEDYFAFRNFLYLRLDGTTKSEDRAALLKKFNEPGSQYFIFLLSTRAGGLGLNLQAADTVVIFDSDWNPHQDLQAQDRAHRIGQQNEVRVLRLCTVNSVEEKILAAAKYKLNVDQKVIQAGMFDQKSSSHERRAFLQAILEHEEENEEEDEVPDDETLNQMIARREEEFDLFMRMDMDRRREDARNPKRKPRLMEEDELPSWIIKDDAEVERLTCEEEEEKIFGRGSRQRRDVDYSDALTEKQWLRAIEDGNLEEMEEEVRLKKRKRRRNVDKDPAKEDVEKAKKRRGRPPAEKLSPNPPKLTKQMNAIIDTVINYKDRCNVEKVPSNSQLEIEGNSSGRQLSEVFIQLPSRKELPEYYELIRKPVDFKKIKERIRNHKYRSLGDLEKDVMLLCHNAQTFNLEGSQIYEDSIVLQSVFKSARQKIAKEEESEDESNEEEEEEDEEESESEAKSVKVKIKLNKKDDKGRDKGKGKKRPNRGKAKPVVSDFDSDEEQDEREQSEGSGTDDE

Row | Emax | DC50 | SMILES
1 | 26% | 0.777 µM | Cc1ncsc1-c1ccc([C@H](C)NC(=O)[C@@H]2C[C@@H](O)CN2C(=O)[C@@H](NC(=O)CCCCCCNC(=O)C(c2ccccc2)n2cc(-c3cc(-c4ccccc4O)nnc3N)cn2)C(C)(C)C)cc1 (mixture of isomers) [Example 75, rac-(2S,4R)-4-hydroxy-1-[rac-(2S)-2-[7-[[2-[4-[3-amino-6-(2-hydroxyphenyl)pyridazin-4-yl]pyrazol-1-yl]-2-phenyl-acetyl]amino]heptanoylamino]-3,3-dimethyl-butanoyl]-N-[rac-(1S)-1-[4-(4-methylthiazol-5-yl)phenyl]ethyl]pyrrolidine-2-carboxamide]
2 | 31% | 0.207 µM | Cc1ncsc1-c1ccc([C@H](C)NC(=O)[C@@H]2C[C@@H](O)CN2C(=O)[C@@H](NC(=O)CCCCCCCCCCCCC(=O)N2CCN(c3ccc(N4CCCC(Oc5cc(-c6ccccc6O)nnc5N)C4)cc3)CC2)C(C)(C)C)cc1 (mixture of isomers) [Example 76, rac-(2S,4R)-4-hydroxy-1-[rac-(2S)-2-[[14-[4-[4-[3-[3-amino-6-(2-hydroxyphenyl)pyridazin-4-yl]oxy-1-piperidyl]phenyl]piperazin-1-yl]-14-oxo-tetradecanoyl]amino]-3,3-dimethyl-butanoyl]-N-[rac-(1S)-1-[4-(4-methylthiazol-5-yl)phenyl]ethyl]pyrrolidine-2-carboxamide]
3 | 24% | 0.244 µM | Cc1ncsc1-c1ccc([C@H](C)NC(=O)[C@@H]2C[C@@H](O)CN2C(=O)[C@@H](NC(=O)CCCCCC(=O)N2CCN(CCOc3ccc(N4CCCC(Oc5cc(-c6ccccc6O)nnc5N)C4)cc3)CC2)C(C)(C)C)cc1 (mixture of isomers) [Example 77, rac-(2S,4R)-4-hydroxy-1-[rac-(2S)-2-[[7-[4-[2-[4-[3-[3-amino-6-(2-hydroxyphenyl)pyridazin-4-yl]oxy-1-piperidyl]phenoxy]ethyl]piperazin-1-yl]-7-oxo-heptanoyl]amino]-3,3-dimethyl-butanoyl]-N-[rac-(1S)-1-[4-(4-methylthiazol-5-yl)phenyl]ethyl]pyrrolidine-2-carboxamide]
4 | 20% | 0.063 µM | Cc1ncsc1-c1ccc([C@H](C)NC(=O)[C@@H]2C[C@@H](O)CN2C(=O)[C@@H](NC(=O)CCCCCCCCC(=O)N2CCN(CCOc3ccc(N4CCCC(Oc5cc(-c6ccccc6O)nnc5N)C4)cc3)CC2)C(C)(C)C)cc1 (mixture of isomers) [Example 78, rac-(2S,4R)-4-hydroxy-1-[rac-(2S)-2-[[10-[4-[2-[4-[3-[3-amino-6-(2-hydroxyphenyl)pyridazin-4-yl]oxy-1-piperidyl]phenoxy]ethyl]piperazin-1-yl]-10-oxo-decanoyl]amino]-3,3-dimethyl-butanoyl]-N-[rac-(1S)-1-[4-(4-methylthiazol-5-yl)phenyl]ethyl]pyrrolidine-2-carboxamide]
5 | 21% | 0.078 µM | Cc1ncsc1-c1ccc([C@H](C)NC(=O)[C@@H]2C[C@@H](O)CN2C(=O)[C@@H](NC(=O)CCCCCCCCCCC(=O)N2CCN(CCOc3ccc(N4CCCC(Oc5cc(-c6ccccc6O)nnc5N)C4)cc3)CC2)C(C)(C)C)cc1 (mixture of isomers) [Example 79, rac-(2S,4R)-4-hydroxy-1-[rac-(2S)-2-[[12-[4-[2-[4-[3-[3-amino-6-(2-hydroxyphenyl)pyridazin-4-yl]oxy-1-piperidyl]phenoxy]ethyl]piperazin-1-yl]-12-oxo-dodecanoyl]amino]-3,3-dimethyl-butanoyl]-N-[rac-(1S)-1-[4-(4-methylthiazol-5-yl)phenyl]ethyl]pyrrolidine-2-carboxamide]
6 | 25% | 0.383 µM | Cc1ncsc1-c1ccc([C@H](C)NC(=O)[C@@H]2C[C@@H](O)CN2C(=O)[C@@H](NC(=O)CCCCCCCCCCCCC(=O)N2CCN(CCOc3ccc(N4CCCC(Oc5cc(-c6ccccc6O)nnc5N)C4)cc3)CC2)C(C)(C)C)cc1 (mixture of isomers) [Example 80, rac-(2S,4R)-4-hydroxy-1-[rac-(2S)-2-[[14-[4-[2-[4-[3-[3-amino-6-(2-hydroxyphenyl)pyridazin-4-yl]oxy-1-piperidyl]phenoxy]ethyl]piperazin-1-yl]-14-oxo-tetradecanoyl]amino]-3,3-dimethyl-butanoyl]-N-[rac-(1S)-1-[4-(4-methylthiazol-5-yl)phenyl]ethyl]pyrrolidine-2-carboxamide]
7 | 34% | 0.504 µM | Cc1ncsc1-c1ccc([C@H](C)NC(=O)[C@@H]2C[C@@H](O)CN2C(=O)[C@@H](NC(=O)CCCCCCCCCCCCC(=O)N2CCN(CCOc3cccc(N4CCCC(Oc5cc(-c6ccccc6O)nnc5N)C4)c3)CC2)C(C)(C)C)cc1 (mixture of isomers) [Example 81, rac-(2S,4R)-4-hydroxy-1-[rac-(2S)-2-[[14-[4-[2-[3-[3-[3-amino-6-(2-hydroxyphenyl)pyridazin-4-yl]oxy-1-piperidyl]phenoxy]ethyl]piperazin-1-yl]-14-oxo-tetradecanoyl]amino]-3,3-dimethyl-butanoyl]-N-[rac-(1S)-1-[4-(4-methylthiazol-5-yl)phenyl]ethyl]pyrrolidine-2-carboxamide]
8 | 62% | 0.586 µM | Cc1ncsc1-c1ccc([C@H](C)NC(=O)[C@@H]2C[C@@H](O)CN2C(=O)[C@@H](NC(=O)CCCCCCCCC(=O)N2CCN(Cc3cccc(C(C)Oc4cc(-c5ccccc5O)nnc4N)c3)CC2)C(C)(C)C)cc1 (mixture of isomers) [Example 82, rac-(2S,4R)-4-hydroxy-1-[rac-(2S)-2-[[10-[4-[[3-[l-[3-amino-6-(2-hydroxyphenyl)pyridazin-4-yl]oxyethyl]phenyl]methyl]piperazin-1-yl]-10-oxo-decanoyl]amino]-3,3-dimethyl-butanoyl]-N-[rac-(1S)-1-[4-(4-methylthiazol-5-yl)phenyl]ethyl]pyrrolidine-2-carboxamide]
9 | 29% | 0.423 µM | Cc1ncsc1-c1ccc([C@H](C)NC(=O)[C@@H]2C[C@@H](O)CN2C(=O)[C@@H](NC(=O)CCCCCCCCCNC(=O)C(c2ccccc2)n2cc(-c3cc(-c4ccccc4O)nnc3N)cn2)C(C)(C)C)cc1 (mixture of isomers) [Example 88, rac-(2S,4R)-4-hydroxy-1-[rac-(2S)-2-[10-[[2-[4-[3-amino-6-(2-hydroxyphenyl)pyridazin-4-yl]pyrazol-1-yl]-2-phenyl-acetyl]amino]decanoylamino]-3,3-dimethyl-butanoyl]-N-[rac-(1S)-1-[4-(4-methylthiazol-5-yl)phenyl]ethyl]pyrrolidine-2-carboxamide]
10 | 34% | 1.32 µM | Cc1ncsc1-c1ccc([C@H](C)NC(=O)[C@@H]2C[C@@H](O)CN2C(=O)[C@@H](NC(=O)CCCCCC(=O)N2CCN(c3cccc(N4CCCC(Oc5cc(-c6ccccc6O)nnc5N)C4)c3)CC2)C(C)(C)C)cc1 (mixture of isomers) [Example 90, rac-(2S,4R)-4-hydroxy-1-[rac-(2S)-2-[[7-[4-[3-[3-[3-amino-6-(2-hydroxyphenyl)pyridazin-4-yl]oxy-1-piperidyl]phenyl]piperazin-1-yl]-7-oxo-heptanoyl]amino]-3,3-dimethyl-butanoyl]-N-[rac-(1S)-1-[4-(4-methylthiazol-5-yl)phenyl]ethyl]pyrrolidine-2-carboxamide]
